Experimental data from US6399614B1, “1-(N-phenylaminoalkyl)piperazine derivatives substituted at position 2 of the phenyl ring” (Recordati S.A. Chemical and Pharmaceutical Company, priority 1997, dated 2002).
pKi: −log10 of the molar value. One block for each molecule: values may come before it.

Experiments:
[1] = target: T1, human 5-HT1A serotonergic receptor (Homo sapiens, UniProt P08908); experiment: Radioreceptor binding, recombinant human 5-HT1A receptors ([3H]8-OH-DPAT, HeLa membranes); settings: for pKi: recombinant human receptor, [3H]8-OH-DPAT, Ki from IC50 by Cheng & Prusoff, read-out: Binding affinity for the 5-HT1A receptor, Ki
T1 construct: expressed in transfected cells; host or cells: HeLa
T1 sequence (P08908 1-422): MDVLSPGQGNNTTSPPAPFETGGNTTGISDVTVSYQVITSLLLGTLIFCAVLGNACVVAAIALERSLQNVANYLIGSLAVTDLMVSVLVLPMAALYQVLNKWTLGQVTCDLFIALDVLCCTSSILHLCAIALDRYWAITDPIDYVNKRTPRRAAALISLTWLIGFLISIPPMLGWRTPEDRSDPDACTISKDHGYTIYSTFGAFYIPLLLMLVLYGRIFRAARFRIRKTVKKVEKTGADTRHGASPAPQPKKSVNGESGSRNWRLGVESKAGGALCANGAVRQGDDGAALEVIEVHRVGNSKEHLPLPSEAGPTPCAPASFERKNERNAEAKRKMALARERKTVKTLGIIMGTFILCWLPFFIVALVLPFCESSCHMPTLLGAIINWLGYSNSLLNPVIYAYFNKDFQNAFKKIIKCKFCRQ
How it was run: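 Membranes from HeLa cells stably transfected with human 5-HT1A clone G-21 incubated 30 min at 30° C with 0.2-1 nM [3H]8-OH-DPAT in 50 mM Tris HCl pH 7.4, 2.5 mM MgCl2, 10 μM pargiline; nonspecific binding with 10 μM 5-HT. Filtration assay; IC50 from curve fitting converted to Ki by Cheng-Prusoff.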

[2] = target: T2, post-synaptic 5-HT1A receptor (Rattus norvegicus, UniProt P19327); experiment: Inhibition of forepaw treading induced by 8-OH-DPAT in rats (post-synaptic antagonism); type: in vivo; settings: for ED50: rat, iv, read-out: Post-synaptic 5-HT1A ID50, heading: Post-synaptic 5-HT1A ID50, dose blocking 50% of forepaw treading induced by 1 mg/kg s.c. 8-OH-DPAT in rats, compound i.v.
T2 construct: from tissue; host or cells: whole animal, male Sprague-Dawley rats
T2 sequence (P19327 1-422): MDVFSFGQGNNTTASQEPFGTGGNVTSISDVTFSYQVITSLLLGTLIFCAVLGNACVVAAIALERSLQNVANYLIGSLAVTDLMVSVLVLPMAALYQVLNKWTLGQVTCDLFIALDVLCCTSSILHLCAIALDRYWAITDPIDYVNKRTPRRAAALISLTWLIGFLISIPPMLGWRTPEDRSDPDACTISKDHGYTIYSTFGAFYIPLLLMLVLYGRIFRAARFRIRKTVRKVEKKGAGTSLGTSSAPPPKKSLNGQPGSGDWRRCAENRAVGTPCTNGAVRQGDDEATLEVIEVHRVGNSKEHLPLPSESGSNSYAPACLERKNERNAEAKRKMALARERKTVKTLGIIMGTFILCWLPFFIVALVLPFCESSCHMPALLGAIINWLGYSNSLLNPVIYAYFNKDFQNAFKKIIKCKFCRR
Experimental: The inhibitory effect of 5-HT1A receptor antagonists on the forepaw treading induced in rats by subcutaneous injection of 8-OH-DPAT was evaluated by the method of Tricklebank (Tricklebank et al., Eur. J.Pharmacol., 117:15, 1985) with minor modifications as described below. Male Sprague-Dawley rats (150-175 g) obtained from Charles River (Italy), were housed in a climate-controlled room and maintained on a 12 h light/dark cycle with free access to food and water. On the day of experiment, rats were placed singly in clear plastic boxes. Rats were treated with reserpine, 1 mg/kg s.c., 18-24 h before the test to deplete intracellular stores of noradrenaline. For evaluation of antagonistic activity, compounds were i.v. administered 16 min before 8-OH-DPAT (1 mg/kg s.c.). Observation sessions of 30 s duration began 3 min after treatment with the agonist and were repeated every 3 min over a period of 15 min. The appearance of the forepaw treading symptom induced by postsynaptic stimulation of the 5HT1A receptors was noted, and its intensity was scored using a ranked intensity scale in which: 0=absent, 1=equivocal, 2=present and 3=intense. Behavioral scores for each treated rat were accumulated over the time course (5 observation periods) and expressed as mean values of 8-10 rats. A linear regression equation was used in order to evaluate ID50 values, defined as the dose of antagonist needed to block 50% of the forepaw treading intensity induced by 1 mg/kg 8-OH-DPAT administered subcutaneously.

pKi [1]: 9.22
ED50 [2]: 0.084 mg/kg
Structure (SMILES): COC(=O)c1ccccc1N(CCN1CCN(c2ccccc2OC)CC1)C(=O)C1CCCCC1 [Example 18, 1-[N-(2-methoxycarbonylphenyl)-N-cyclohexylcarbonyl-2-aminoethyl]-4-(2-methoxyphenyl)piperazine]

pKi [1]: 9.85
ED50 [2]: 0.177 mg/kg
Structure (SMILES): COc1ccccc1N1CCN(CCN(C(=O)C2CCCCC2)c2ccccc2OC)CC1 [Example 23, 1-[N-(2-methoxyphenyl)-N-cyclohexylcarbonyl-2-aminoethyl]-4-(2-methoxyphenyl)piperazine]

Second part, the molecule before the results:

Structure (SMILES): COc1ccccc1N1CCN(CCN(C(=O)C2CCCCC2)c2ccccc2)CC1 [Compound A, 1-(N-phenyl-N-cyclohexylcarbonyl-2-aminoethyl)-4-(2-methoxyphenyl)piperazine, reference compound]
affinity for 5-HT1A receptors (in words) [1]: very high affinity
fold less active than compound of Example 2, post-synaptic model ([2]; forepaw treading model in rats): at least 10 fold
ED50 [2]: 0.35 mg/kg

Structure (SMILES): COc1ccccc1N1CCN(CCN(C(=O)C2CCCCC2)c2ccccc2[N+](=O)[O-])CC1 [Example 2, 1-[N-(2-nitrophenyl)-N-cyclohexylcarbonyl-2-aminoethyl]-4-(2-methoxyphenyl) piperazine]
affinity for 5-HT1A receptors (in words) [1]: very high affinity
ED50 [2]: 0.036 mg/kg

Structure (SMILES): O=C(C1CCCCC1)N(CCN1CCN(c2cccc3[nH]ccc23)CC1)c1ccccc1[N+](=O)[O-] [Example 13, 1-[N-(2-nitrophenyl)-N-cyclohexylcarbonyl-2-aminoethyl]-4-(4-indolyl)piperazine]
pKi [1]: 9.30
ED50 [2]: 0.082 mg/kg
